The values that follow come from patent US20200323225A1, “LIPASE INHIBITORS TO PREVENT RANCIDITY IN EXPRESSED HUMAN MILK DURING STORAGE” (STC.UNM, priority 2017, published 2020).

For assay [1], the target named is T1, LPL (Homo sapiens, UniProt P06858).
T1 sequence (P06858 28-475): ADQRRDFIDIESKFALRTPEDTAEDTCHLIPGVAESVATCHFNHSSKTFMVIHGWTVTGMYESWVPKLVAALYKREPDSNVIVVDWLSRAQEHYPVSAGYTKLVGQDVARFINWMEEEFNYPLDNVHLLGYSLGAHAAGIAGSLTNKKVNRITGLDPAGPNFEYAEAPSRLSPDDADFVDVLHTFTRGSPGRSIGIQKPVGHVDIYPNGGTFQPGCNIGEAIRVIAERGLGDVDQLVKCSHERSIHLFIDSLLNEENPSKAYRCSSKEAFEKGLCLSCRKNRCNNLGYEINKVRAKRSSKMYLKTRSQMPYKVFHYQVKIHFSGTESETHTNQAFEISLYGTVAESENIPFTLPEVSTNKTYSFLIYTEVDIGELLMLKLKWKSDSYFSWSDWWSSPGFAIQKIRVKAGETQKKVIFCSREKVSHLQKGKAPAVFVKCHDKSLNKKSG
Nature of the assay: LPL activity in milk spiked with 6 pmol LPL, with increasing levels of Orlistat. The class given is biochemical. Particulars: 10 μM Orlistat, monitored over 20 min (FIG. 3). The method, then: FIG. 3 is a graph showing measurement of LPL activity in milk spiked with 6 pmol LPL in the absence or presence of LPL inhibitor, Orlistat.
LPL activity in milk spiked with 6 pmol LPL and increasing levels of Orlistat (an LPL inhibitor) was monitored over the course of 20 min (FIG. 3). […] Raw milk samples were also treated with this level of Orlistat (10 μM) (FIG. 4).

In assay [2] the test system is LPL. As to the kind of experiment: Lipase activity inhibition in raw milk samples after incubation with Orlistat. It counts as biochemical. Particulars: raw milk samples (n=2); 10 μM Orlistat; incubated 1 h (FIG. 4). Here is the method:
FIG. 4 is a graph sowing lipase activity inhibition after incubation with Orlistat. […] LPL activity in milk spiked with 6 pmol LPL and increasing levels of Orlistat (an LPL inhibitor) was monitored over the course of 20 min (FIG. 3). […] Raw milk samples were also treated with this level of Orlistat (10 μM) (FIG. 4).

Take `CCCCCCCCCCC[C@@H](C[C@@H]1OC(=O)[C@H]1CCCCCC)OC(=O)[C@H](CC(C)C)NC=O` [Orlistat]: in assay [1], the “reduction in LPL activity” value is reported as “most significant reduction in LPL”. The “decrease in lipase activity (LPL)” value in assay [2] is on record as 22%.
